Assays:
[1] = system: MEFs during reprogramming; assay: Alkaline phosphatase (AP)+ colony formation during reprogramming; assay type: cell-based, mouse; conditions: molecule applied during reprogramming
[2] = system: 4F-transduced Oct4-GFP MEFs; assay: Kinase inhibitor treatment of 4F-transduced Oct4-GFP MEFs, Oct4-GFP+ colony count (reprogramming efficiency); assay type: cell-based, mouse; conditions: for reprogramming, Oct4-GFP+ colonies, dose/response: 0.5 μM, drug from day 3, colonies at day 13; for reprogramming, Oct4-GFP+ colonies: secondary screen; for iPSC generation in non-permissive conditions: 4F expression too low to reprogram vehicle-treated MEFs, GFP+ colonies at day 12-13; for iPSC generation when p53 is silenced by shRNA: 4F plus p53 shRNA, inhibitor from day 3, GFP+ colonies at day 12
Method: MEFs were cultured in DMEM (Invitrogen, 11995-065) with 10% FBS (Invitrogen) plus glutamine and NEAA. Only MEFs at passage of 0 to 4 were used for reprogramming. pMX-Oct4, Sox2, Klf4 and cMyc were purchased from Addgene. […] Viruses were harvested and combined 2 days later. For reprogramming, MEFs were seeded in 12-well plates and transduced with 4F virus the next day with 4 ug/ml Polybrene. One day later, the medium was changed to fresh MEF medium, and 3 days later it was changed to mES culture medium supplemented with LIF (Millipore, ESG1107). GFP+ colonies were picked at day 14 post-transduction, and expanded clones were cultured in DMEM with 15% FBS (Hyclone) plus LIF, thioglycerol, glutamine and NEAA. Irradiated CF1 MEFs served as feeder layers to culture mES cells and derived iPS clones.
All compounds are well-characterized protein kinase inhibitors. Compounds were diluted to 2 mM in 96-well plates. 4F-transduced cells were seeded into gelatin coated plates (4000 cells/well). Inhibitors were added every other day until day 13. Cells were then fixed with 4% paraformaldehyde for 20 min at room temperature and number of Oct4-GFP+ colonies was directly counted under a microscope. Cells were then stained with Vector red alkaline phosphatase substrate kit I™ (Vector laboratories, SK5100).
To define signaling mechanisms underlying reprogramming, a double-blind screen of 244 well-characterized cell-permeable protein kinase inhibitors was undertook to identify kinases that enhance or inhibit the process. Mouse embryonic fibroblasts from a transgenic line in which GFP expression is driven by the endogenous Oct4 promoter were chosen as the starting material for a reporter cell line of somatic cell reprogramming. Fully reprogrammed cells switch on endogenous Oct4 expression, making resultant iPS colonies GFP-positive and enabling quantification of reprogramming efficiency. To minimize well-to-well variation, MEFs were first transduced with 4F factors in bulk (FIG. 9A) and then reseeded at 3000 cells/well into gelatin-coated 96-well plates before inhibitor treatment. Starting at day 3 post-transduction, inhibitors were added at a final concentration of 2 μM and media were refreshed every other day with mES culture medium plus inhibitor. At day 13 post-transduction, plates were fixed in 4% paraformaldehyde and GFP-positive colonies were directly quantified microscopically.
Two columns of wells from each plate (columns 1 and 12) were treated with DMSO (vehicle) only and served as controls.

[3] = system: GSK3β; assay: Western blotting of phospho- and total GSK3β; assay type: cell-based, mouse; conditions: 4F-infected MEFs
Method: 4F-infected MEFs were treated with different doses of B6 inhibitor starting at day 3 post-infection for 48 hrs before being harvested for western blotting analysis.
The experiment was the same as FIG. 5C. Actin served as the loading control.
4F-infected MEFs were treated with 1 μM each of Akt inhibitor (Akt X) and B6.
Membranes were blocked with 5% milk in TBST for at least 1 hr at room temp or overnight at 4° C.

[4] = system: Aurora A kinase mRNA; assay: RT-qPCR of Aurora A kinase mRNA; assay type: cell-based, mouse; conditions: 4F-infected MEFs, 1 μM, 2 days
Method: MEFs were infected with 4F for 3 days and treated under mock conditions or with DMSO or 1 μM B6 for 2 days prior to RT-qPCR analysis of total RNA.
(§1) mRNA quantitative PCR: Total RNAs were extracted using Trizol (Invitrogen). After extraction, 1 ug total RNA was used for RT using Superscript II™ (Invitrogen). Quantitative PCR was performed using a Roche LightCycler480™ II and the Sybr green mixture from Abgene (Ab-4166). Other primers were previously described (Takahashi et al. 2006 Cell 126:663-76).

[5] = system: Aurora A kinase; assay: Western blotting of Aurora A kinase protein; assay type: cell-based, mouse; conditions: wild type and 4F-infected MEFs (B6 1 μM, 2 days); 4F-infected MEFs (MLN8237, 48 hrs)
Method: FIGS. 13A-13h are a series of graphical representations depicting Aurora A kinase inhibition by B6 promoting Akt mediated inactivation of GSK3β. FIG. 13A is a western blot showing B6 treatment increases aurora A kinase protein levels. Both 4F-infected (day 3) and mock MEFs were treated with 1 μM B6 for 2 days and cells were harvested for western blotting of Aurora A kinase. Actin served as loading control.
Cells were harvested 48 hrs after drug treatment for western blotting analysis of AurkA protein. Actin serves as loading control.
Western blotting: Total cell lysates were prepared by incubating cells in MPER buffer (PIERCE, 78503) on ice for 20 min, and then cleared by centrifugation at 13,000 rpm for 10 min. An equal volume of lysates was loaded onto 10% SDS-PAGE gels, and proteins were transferred to PVDF membranes (Bio-Rad, 1620177) using the semi-dry system (Bio-Rad). Membranes were blocked with 5% milk in TBST for at least 1 hr at room temp or overnight at 4° C. Antibodies used include: anti-mNanog (R&D, AF2729), anti-h/mSSEA1 (R&D, MAB2156), anti-Actin (Thermo, MS1295P0), anti-AFP (Abcam, ab7751), anti-Beta III tubulin (R&D systems, MAB1368), and anti-alpha actinin (Sigma, A7811), anti-mAurkA (Bethyl lab, A300-072A), anti-hAurkA (Bethyl lab, A300-071A), total-GSK3β (Cell signaling technology, 9315S), phospho-GSK3β (Cell Signaling Technology, 9323S).

[6] = system: 4F-infected MEFs; assay: Cell cycle analysis, PI staining and flow cytometry; assay type: cell-based, mouse; conditions: for cell cycle progression: various concentrations, 48 hr
Method: FIG. 24A is a series of images of DNA analysis by flow cytometry. 4F-infected MEFs were treated with different concentrations of B6 at day 3 post-infection. Cells were harvested after 48 hr of drug treatment, subjected to PI staining and analyzed for DNA content by flow cytometry.
FIG. 24B is a series of images of DNA analysis by flow cytometry. […] The experimental procedure was as in FIG. 24A.
Cell cycle analysis: MEFs or 4F-infected MEFs were treated with inhibitors for two days and then harvested and trypsinized before fixing in 75% ethanol overnight. Cells were centrifuged at 1000 rpm for 5 min, washed once with PBS, and treated with PI staining solution for at least 30 min at room temperature before flow cytometry analysis. ˜20000 events per sample were collected per analysis and cell cycle data was modeled using ModFit™.

[7] = system: Pdk1, Src, Pten and p85α; assay: RT-qPCR of genes upstream of Akt; assay type: cell-based, mouse; conditions: MEFs transduced with 4F for three days, then 1 μM for two days
Method: FIG. 22, is a graph plotting relative mRNA levels in MEFs. […] MEFs were first transduced with 4F for three days and then treated for another two days with DMSO or 1 μM B6. Total RNAs were harvested and analyzed for indicated factors, which reportedly function upstream of Akt.
as §1

[8] = system: mES cells; assay: mES cell self-renewal and differentiation in LIF+ and LIF− conditions; assay type: cell-based, mouse; conditions: 0.5 μM and 1 μM, 4 days
Description: Cells were harvested for RNA extraction and RT-qPCR of indicated mES self-renewal genes.
LIF withdrawal in both B6-treated and DMSO control cells promoted mES cell differentiation, as indicated by loss of colonies, based on morphology and AP staining (data not shown).

[9] = biological target: Cdk5/p35 (Homo sapiens, UniProt Q00535); conditions: read-out: Potential Targets: Cdk5/p35, IC50; cited from earlier work
[10] = biological target: Cdk2/E (Homo sapiens, UniProt P24941); conditions: read-out: Potential Targets: Cdk2/E, IC50; cited from earlier work
[11] = biological target: Cdk7/H/MAT1 (Homo sapiens, UniProt P50613); conditions: read-out: Potential Targets: Cdk7/H/MAT1, IC50; cited from earlier work
[12] = biological target: Cdk3/E (Homo sapiens, UniProt Q00526); conditions: read-out: Potential Targets: Cdk3/E, IC50; cited from earlier work
[13] = biological target: Cdk1/B (Homo sapiens, UniProt P06493); conditions: read-out: Potential Targets: Cdk1/B, IC50; cited from earlier work
[14] = system: uninfected MEFs; assay: Cell proliferation assay (Celltiter 96 aqueous), uninfected MEFs; assay type: cell-based, mouse; conditions: 0.5 μM
Method: (§2) MEFs were treated with drugs at 2 μM and proliferation was assayed by using the Celltiter 96™ aqueous method (Promega). Y-axis represents the absorbance at 490 nm to detect formazan, which is converted from MTS tetrazolium by living cells. A higher reading indicates increased cell number. […] Oct4-GFP+ colonies were quantified at day 13.
(§3) FIG. 16A is a graph plotting relative cell viability. 4F-infected MEFs were seeded in 96-well plates and 0.5 μM of three inhibitors was added at day 3 after transduction (Day 0 in dataset). Proliferation of cells was analyzed every other day using the Celltiter 96™ aqueous method (Promega). FIG. 16B is a graph plotting relative cell viability. […] The experimental procedure is the same as in FIG. 16A.
(§4) Cell proliferation assay: 3000 MEFs were seeded in each well in 96-well plates and transduced with 4F virus for three days. Cells were then treated with inhibitors at 0.5 μM and harvested every other day. Cells were incubated with mES medium containing Celltiter 96 Aqueous™ one solution (Promega, G3580) for 1 hr in tissue culture incubator. Absorbance at 490 nm was then measured for each well using a plate reader, and data was used to generate relative proliferation curves using the signal from day 3 post-transduction as a reference.

[15] = system: 4F-infected MEFs; assay: Cell proliferation assay (Celltiter 96 aqueous), 4F-infected MEFs; assay type: cell-based, mouse; conditions: 4F-transduced MEFs, 0.5 μM
Method: as §2, §3, §4

[16] = system: Nanog, Tet1 and Eras; assay: RT-qPCR of mES-specific genes in 4F-transduced MEFs; assay type: cell-based, mouse; conditions: day 14 post transduction
Method: Data is derived from analysis of three independent wells. FIG. 23B is a histogram of relative mRNA level. […] Cells were harvested at day 14 post 4F transduction. […] Shown are data derived from three independent wells.
as §1

[17] = system: OSKM-transduced Oct4-EGFP MEFs; assay: OSKM-induced reprogramming with small molecules, GFP+ colonies; assay type: cell-based, mouse; conditions: treated four days after OSKM transduction for at least 10 days, vs DMSO
Method: All 17 molecules are tested by examining alkaline phosphatase (AP)+ colony formation during reprogramming while these molecules were applied. […] To evaluate their effect on induction of mature GFP+ iPS cells, OSKM-transduced Oct4-EGFP MEFs are treated four days after transduction with each of these factors separately.
Oct4-EGFP MEFs are transduced with OSKM and four days later treated with individual small molecules for at least 10 days. GFP+ colonies are identified. Error bars represent standard deviations of three independent experiments. *p value<0.05; **p value<0.005.

[18] = 12-well plates, 2 μM, drug from day 3, colonies at day 13, vs DMSO

Sequence of Cdk5/p35 (Q00535 whole entry, species assumed): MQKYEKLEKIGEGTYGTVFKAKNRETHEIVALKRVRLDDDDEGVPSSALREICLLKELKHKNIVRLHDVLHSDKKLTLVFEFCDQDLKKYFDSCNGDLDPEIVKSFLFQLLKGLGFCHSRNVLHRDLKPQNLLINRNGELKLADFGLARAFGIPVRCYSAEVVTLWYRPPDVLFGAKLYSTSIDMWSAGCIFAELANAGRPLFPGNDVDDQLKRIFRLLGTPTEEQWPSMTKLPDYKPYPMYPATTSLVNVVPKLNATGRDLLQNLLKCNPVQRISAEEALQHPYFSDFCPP
Sequence of Cdk5/p35 (Q15078 whole entry partner, species assumed): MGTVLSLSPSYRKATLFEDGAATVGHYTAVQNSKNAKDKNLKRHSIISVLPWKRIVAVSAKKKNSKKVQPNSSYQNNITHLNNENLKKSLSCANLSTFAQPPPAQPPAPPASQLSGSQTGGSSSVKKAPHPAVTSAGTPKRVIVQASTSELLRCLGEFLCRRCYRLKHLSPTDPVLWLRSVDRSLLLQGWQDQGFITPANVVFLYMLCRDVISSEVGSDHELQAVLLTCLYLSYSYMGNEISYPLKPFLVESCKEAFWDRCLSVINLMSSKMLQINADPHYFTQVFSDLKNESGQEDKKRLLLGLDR
Sequence of Cdk1/B (P06493 whole entry, species assumed): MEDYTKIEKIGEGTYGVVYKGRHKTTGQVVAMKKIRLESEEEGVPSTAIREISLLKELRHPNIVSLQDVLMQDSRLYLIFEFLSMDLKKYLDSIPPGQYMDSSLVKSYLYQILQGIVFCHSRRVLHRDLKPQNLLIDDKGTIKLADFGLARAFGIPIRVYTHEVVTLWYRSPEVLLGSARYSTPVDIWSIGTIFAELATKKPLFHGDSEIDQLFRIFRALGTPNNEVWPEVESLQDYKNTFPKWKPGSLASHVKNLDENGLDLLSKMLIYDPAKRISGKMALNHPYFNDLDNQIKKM
Sequence of Cdk1/B (P14635 whole entry partner, species assumed): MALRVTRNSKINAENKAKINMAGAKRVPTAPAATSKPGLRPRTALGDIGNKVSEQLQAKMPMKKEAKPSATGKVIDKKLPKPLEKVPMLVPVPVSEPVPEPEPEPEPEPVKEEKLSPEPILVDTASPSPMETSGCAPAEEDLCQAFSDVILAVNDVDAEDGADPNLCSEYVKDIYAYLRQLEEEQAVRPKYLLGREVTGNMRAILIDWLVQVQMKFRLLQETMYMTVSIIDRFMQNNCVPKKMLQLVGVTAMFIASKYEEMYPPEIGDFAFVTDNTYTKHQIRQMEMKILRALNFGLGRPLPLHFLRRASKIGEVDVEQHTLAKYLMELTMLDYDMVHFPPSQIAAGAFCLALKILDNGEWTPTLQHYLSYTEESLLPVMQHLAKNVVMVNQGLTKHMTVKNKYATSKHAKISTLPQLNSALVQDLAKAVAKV
Sequence of Cdk7/H/MAT1 (P50613 whole entry, species assumed): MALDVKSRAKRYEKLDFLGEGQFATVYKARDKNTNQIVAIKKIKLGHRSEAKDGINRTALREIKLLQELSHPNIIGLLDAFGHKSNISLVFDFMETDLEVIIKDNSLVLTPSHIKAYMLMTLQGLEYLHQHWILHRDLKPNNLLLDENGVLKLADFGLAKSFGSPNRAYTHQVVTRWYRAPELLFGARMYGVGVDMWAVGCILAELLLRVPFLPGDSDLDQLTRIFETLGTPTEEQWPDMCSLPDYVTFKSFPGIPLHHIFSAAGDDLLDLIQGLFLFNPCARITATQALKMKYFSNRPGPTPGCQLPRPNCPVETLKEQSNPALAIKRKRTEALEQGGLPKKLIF
Sequence of Cdk7/H/MAT1 (P51946 whole entry partner, species assumed): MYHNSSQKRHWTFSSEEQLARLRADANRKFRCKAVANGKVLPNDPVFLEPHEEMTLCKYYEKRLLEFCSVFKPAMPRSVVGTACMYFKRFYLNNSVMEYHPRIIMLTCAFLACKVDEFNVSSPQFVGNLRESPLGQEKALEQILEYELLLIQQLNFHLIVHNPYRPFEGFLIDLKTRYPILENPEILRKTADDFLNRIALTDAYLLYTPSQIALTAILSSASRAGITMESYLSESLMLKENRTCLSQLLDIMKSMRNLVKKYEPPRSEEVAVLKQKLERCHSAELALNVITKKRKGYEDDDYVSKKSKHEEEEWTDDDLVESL
Sequence of Cdk7/H/MAT1 (P51948 whole entry partner, species assumed): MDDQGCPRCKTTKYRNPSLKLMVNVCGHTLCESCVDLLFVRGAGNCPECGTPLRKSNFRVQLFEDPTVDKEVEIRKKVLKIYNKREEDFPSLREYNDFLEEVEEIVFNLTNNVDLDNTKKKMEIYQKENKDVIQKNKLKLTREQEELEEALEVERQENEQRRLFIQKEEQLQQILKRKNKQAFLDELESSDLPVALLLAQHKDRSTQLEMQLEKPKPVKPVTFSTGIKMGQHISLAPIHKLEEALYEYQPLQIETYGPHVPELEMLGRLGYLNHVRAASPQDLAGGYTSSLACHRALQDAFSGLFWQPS

4-hydroxytamoxifen
effect on AP+ colony formation [1]: not showing adverse effect on AP+ colony formation

CCN(CC)CCCCN1c2ccccc2Oc2ccc(Cl)cc21 [Akt X]
reprogramming ([2]; 1 μM, triplicate wells): compromises reprogramming | GSK3β phosphorylation ([3]; 1 μM each of Akt X and B6): diminished

O=C(Nc1cccc(Nc2nccc(Nc3cccc(C(F)(F)F)c3)n2)c1)C1CC1 [BIM-0086660]
reprogramming, Oct4-GFP+ colonies, dose/response [2]: potent enhancers | reprogramming, Oct4-GFP+ colonies ([2]; 1 μM, vs DMSO): enhanced reprogramming more robustly at 1 μM than at 2 μM | AurkA mRNA levels [4]: not significantly altered | AurkA protein levels [5]: increased AurkA protein levels relative to untreated cells | GSK3β total protein levels ([3]; 48 hrs): unchanged | phospho-GSK3β ([3]; different doses from day 3 post-infection for 48 hrs): significant increase in phospho-GSK3β | cell cycle progression [6]: little change in cell cycle progression | expression levels of genes upstream of Akt (Pdk1, Src, Pten, p85α) [7]: significant changes were not observed | Oct4 expression in mES cells [8]: very small increase | mES self-renewal or differentiation ([8]; LIF+ and LIF−): a significant effect on either mES self-renewal (in the presence of LIF) or differentiation (following LIF withdrawal) was not seen

Cc1cccc(-c2[nH]c(C(C)(C)C)nc2-c2ccc3c(c2)OCO3)n1 [BIM-0086716]
reprogramming, Oct4-GFP+ colonies [2, 18]: consistently and significantly enhanced reprogramming

CC(C)c1nn(-c2c(Cl)cccc2Cl)c2nc(Cc3ccc(OCCO)cc3)[nH]c(=O)c12 [BIM-0086744]
IC50 [9]: 71 nM | IC50 [10]: 9 nM | IC50 [11]: 9 nM | IC50 [12]: 10 nM | IC50 [13]: 48 nM

O=[N+]([O-])c1ccc(CNc2nc(NCc3cccc(C(F)(F)F)c3)nc3nc[nH]c23)cc1 [BIM-0207164]
reprogramming, Oct4-GFP+ colonies, dose/response [2]: potent enhancers | iPSC generation in non-permissive conditions [2]: enhanced iPSC generation even in non-permissive conditions | iPSC generation when p53 is silenced by shRNA [2]: equivalent in inhibitor-treated and -untreated conditions | reprogramming, Oct4-GFP+ colonies [2, 18]: consistently and significantly enhanced reprogramming | proliferation [14]: did not significantly promote proliferation | proliferation [15]: did not significantly promote proliferation

O=S(=O)(c1c(O)c(Cl)cc(Cl)c1Cl)c1c(O)c(Cl)cc(Cl)c1Cl [BIM-0207174]
reprogramming, Oct4-GFP+ colonies, dose/response [2]: potent enhancers | iPSC generation in non-permissive conditions [2]: enhanced iPSC generation even in non-permissive conditions | iPSC generation when p53 is silenced by shRNA [2]: equivalent in inhibitor-treated and -untreated conditions | reprogramming, Oct4-GFP+ colonies [2, 18]: consistently and significantly enhanced reprogramming | proliferation [14]: did not significantly promote proliferation | proliferation [15]: did not significantly promote proliferation

COC(=O)[C@H]1[C@H]2C[C@H]3c4[nH]c5ccccc5c4CCN3C[C@@H]2CC[C@@H]1O.Cl [Corynanthine, Corynanthine hydrochloride]
effect on AP+ colony formation [1]: not showing adverse effect on AP+ colony formation

COc1cc(Nc2ncc3c(n2)-c2ccc(Cl)cc2C(c2c(F)cccc2OC)=NC3)ccc1C(=O)O [MLN8237]
mES-specific gene expression [16]: increases in mES-specific gene expression | enhancement of reprogramming ([2]; 10 nM, from day 3 for 10 days): approximately 4 fold | number of GFP+ colonies ([2]; 100 nM): significant increase in the number of GFP+ colonies | AurkA protein levels [5]: Increased AurkA protein levels | cell cycle ([6]; 10 nM): did not alter the cell cycle | number of cells in G2 ([6]; 100 nM): increased the number of cells in G2 | cell cycle progression [6]: little change in cell cycle progression

O=C(NCCN1CCOCC1)c1ccc(Cl)cc1 [Moclobemide]
effect on AP+ colony formation [1]: not showing adverse effect on AP+ colony formation

COc1ccc2cc(CCC(C)=O)ccc2c1 [Nabumetone]
increase in number of reprogrammed colonies [17]: at least 2.8 fold | effect on AP+ colony formation [1]: not showing adverse effect on AP+ colony formation
